Reference: patent US6083964A, “Optical resolution of racemic aminoalkylpyridine anticonvulsants and (+) aminoalkylpyridine enantiomers as highly potent orally effective anticonvulsant drugs and excitatory amino acid antagonists” (K and K Biosciences, Inc., priority 1999, dated 2000)

Tests used:
[1] = tested on: maximal electroshock seizure (MES) in rats; test: Maximal electroshock seizure (MES) test, rats, p.o.; format: in vivo, rat (Sprague-Dawley); conditions: rat, p.o.; for ED50: MES test; for P.I. (protective index, TD50/ED50): MES
From the text: The (+) AAP enantiomers obtained by optical resolution of racemic AAPs and the resulting highly orally effective anticonvulsant compositions of this invention are useful in the treatment of convulsive disorders. […] A series of (+) AAP enantiomers and (-) AAP enantiomers of this invention has been evaluated for anticonvulsant activity by the intraperitoneal (i.p.) and by the oral (p.o.) route using two standard seizure models in the mouse and in the rat, the maximal electroshock seizure (MES) test and the subcutaneous pentylenetetrazol (Metrazole) seizure threshold (scMet) test. […] The following Table 2 presents the results of these anticonvulsant tests with respect to several (+) and (-) AAP enantiomeric compounds derived from optical resolution of racemic AAPs of the present invention. This Table 2 identifies the specific compounds tested by their chemical name and provides the test model, the route of administration, the animal species used, and the anticonvulsant activity and toxicity in terms of ED50 and TD50 values, (the median effective and toxic dose respectively), when intraperitoneally administered to mice, and when orally administered to rats. The Maximal Electroshock Seizure Test (MES): Maximal electroshock seizures are elicited with a 60 Hz alternating current of 50 mA intensity in mice and about 150 mA intensity in rats (5-7 times that necessary to elicit minimal electroshock seizures), delivered for 0.2 sec via corneal electrodes. A drop of 0.9% saline is instilled in the eye prior to application of the electrodes in order to […]. Abolition of the hind limb tonic extension component of the seizure is defined as protection and results are expressed as number of animals protected/number of animals tested. The Subcutaneous Pentylenetetrazol (Metrazole) Seizure Threshold Test (scMet): A 0.5% solution of 85 mg/kg of pentylenetetrazol is administered subcutaneously in the posterior midline 30 minutes or 4 hours after drug administration to the animal. […] This species will be the subject of the complete anticonvulsant quantification test evaluation as described above, but after oral (gavage) administration of the candidate compound.

[2] = Neurological deficit, positional sense test and gait and stance test, rats, p.o.; design: species or system rat (Sprague-Dawley); conditions: rat, in vivo, po
Protocol: (§1) Neurotoxicity is determined by the rotorod ataxia test in mice and by the positional sense test and gait and stance test in the rat. The following Table 2 presents the results of these anticonvulsant tests with respect to several (+) and (-) AAP enantiomeric compounds derived from optical resolution of racemic AAPs of the present invention. This Table 2 identifies the specific compounds tested by their chemical name and provides the test model, the route of administration, the animal species used, and the anticonvulsant activity and toxicity in terms of ED50 and TD50 values, (the median effective and toxic dose respectively), when intraperitoneally administered to mice, and when orally administered to rats. […] This species will be the subject of the complete anticonvulsant quantification test evaluation as described above, but after oral (gavage) administration of the candidate compound. […] Neurological deficit in rats is examined by the positional sense test and gait and stance test. […] Inability to do so rapidly indicates a neurologic deficit. In the gait and stance test, a neurologic deficit is indicated by a circular or a zigzag gait, ataxia, abnormal spread of the legs, abnormal body posture, tremor, hyperactivity, lack of exploratory behavior, somnolence, stupor, or catalepsy.

[3] = Neurotoxicity, rotorod ataxia test, mice, i.p.; design: species or system mouse (male Carworth Farms #1); conditions: mouse, in vivo, ip, TD50
Protocol: (§2) Neurotoxicity is determined by the rotorod ataxia test in mice and by the positional sense test and gait and stance test in the rat. The following Table 2 presents the results of these anticonvulsant tests with respect to several (+) and (-) AAP enantiomeric compounds derived from optical resolution of racemic AAPs of the present invention. This Table 2 identifies the specific compounds tested by their chemical name and provides the test model, the route of administration, the animal species used, and the anticonvulsant activity and toxicity in terms of ED50 and TD50 values, (the median effective and toxic dose respectively), when intraperitoneally administered to mice, and when orally administered to rats. In mice, i.p.: All compounds are emulsified in 0.5% methylcellulose. The solvent has been tested for anticonvulsant and toxic effects and found to introduce no significant bias into the testing of anticonvulsant activity. The compounds are administered intraperitoneally in a volume of 0.01 ml/gm to male Carworth Farms #1 mice weighing about 20 gm. All compounds are tested at least at three dose levels (30, 100 and 300 mg/kg) at 30 minutes and 4 hours after their administration. Neurotoxicity is evaluated in mice by the rotorod ataxia test. The animal is placed on a wooden rod of 1 and 1/8 diameter rotating at 6 rpm. Normal mice can remain on a rod rotating at this speed indefinitely. […] Anticonvulsant Quantification in Mice i.p.: The ED50 values are determined in the MES, scMet and rotorod ataxia test. To determine the ED50 values, five logarithmically spaced doses of the test compound are administered to animals (male Carworth Farms #1 mice) in groups of eight, to cover 0-100% protection, and the dose required to protect 50% of the animals (ED50) together with its 95% confidence limits, is determined graphically.

[4] = tested on: hippocampal kindled rats; test: Toxicity in hippocampal kindled rats, i.p.; format: in vivo; conditions: 100 mg/kg i.p., 45 min
Protocol: The (+) AAP enantiomer, compound 1 in Table 1, was tested in the hippocampal kindled rat, by the i.p. route. […]

[5] = tested on: neurological deficit in rats; test: Neurological deficit, positional sense test and gait and stance test, rats, p.o.; design: species or system rat (Sprague-Dawley); conditions: rat, in vivo, po
Protocol: as §1

[6] = tested on: neurotoxicity (rotorod ataxia) in mice; test: Neurotoxicity, rotorod ataxia test, mice, i.p.; design: species or system mouse (male Carworth Farms #1); conditions: mouse, in vivo, ip
Protocol: as §2

CC(Nc1ccc(Cl)cc1)c1ccncc1 (single isomer, unassigned; (+)) [Compound 1, (+) N-(4-Chlorophenyl)-1-(4-pyridyl)ethylamine]
ED50 ([1]; listed as (1) (+) Enantiomer): 10.2 mg/kg | P.I. (protective index, TD50/ED50) ([1]; listed as (1) (+) Enantiomer): > 49.1 | TD50 [2]: > 500 mg/kg | TD50 [3]: 149 mg/kg | toxic (number of animals) [4]: 2/7

CC(Nc1ccc(Cl)cc1)c1ccncc1 (single isomer, unassigned; (-)) [Compound 2, (-) N-(4-Chlorophenyl)-1-(4-pyridyl)ethylamine]
ED50 ([1]; listed as (1) (-) Enantiomer): 25.8 mg/kg | P.I. (protective index, TD50/ED50) ([1]; listed as (1) (-) Enantiomer): > 19.4 | TD50 [5]: > 500.0 mg/kg | TD50 [6]: 219.4 mg/kg
